Reference: US12396961B2, “Compounds and compositions for intracellular delivery of agents” (ModernaTX, Inc., priority 2015, dated 2025)

Columns and labels:
[1] = tested on: luciferase (Luc) mRNA expression; experiment: Luc expression (AUC) in CD-1 mice relative to MC3; format: in vivo; conditions: for Liver/Spleen Ratio / Lipid/MC3 AUC: Table 7c; for Lipid/MC3 AUC: AUC relative to MC3; for Lipid/MC3 AUC CD-1 mice 0.5 mpk: Table 7b, Luc expression
Description: FIG. 15 is a graph summarizing luciferase expression levels at 6 h after administration of nanoparticle compositions containing compounds of the disclosure to CD-1 mice at a dose of 0.5 mpk. Total light flux values were acquired via body luminescent imaging (BLI) 6 h after administration. In this Figure, the numbers 1-7 and 10 refer to the compositions containing Compounds 4-10 and MC3 respectively.
In contrast, hEPO expression in rats induced by administration of nanoparticle composition including compound according to one of formulae (I), (Ia1)-(Ia6), (Ib), (II), (IIa), (III), and (IIIa) was substantially lower than that measured for MC3. […] Table 7c and 7d show additional protein expressions and clearance data from compositions with various compounds disclosed herein as compared to with MC3.

[2] = Lipid clearance: % dose remaining in mice (liver) 6 h and 24 h after administration of nanoparticle compositions; format: in vivo, CD-1 mice; conditions: Table 7c, species not given
[3] = Particle size and polydispersity index (Zetasizer Nano ZS); format: physicochemical; conditions: Table 1; for PDI: DOPE 40:20:38.5:1.5, Luc mRNA
Outline: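 Particle size and polydispersity index were measured by dynamic light scattering on a Zetasizer Nano ZS in 1×PBS. Zeta potential was measured in 15 mM PBS.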

[4] = tested on: LDLr mRNA / Luc expression; experiment: Expression (AUC) in LDLr−/− mice relative to KL22; format: in vivo; conditions: Table 7b
[5] = tested on: luciferase (Luc) mRNA expression; experiment: Expression of Luc, bioluminescence (total flux) after intravenous administration to mice; format: in vivo; conditions: mice; in words
Description: In order to monitor how effectively various nanoparticle compositions deliver therapeutic and/or prophylactic agents to targeted cells, different nanoparticle compositions including a particular therapeutic and/or prophylactic agent (for example, a modified or naturally occurring RNA such as an mRNA) are prepared and administered to rodent populations. Mice are intravenously, intramuscularly, intraarterially, or intratumorally administered a single dose including a nanoparticle composition with a formulation such as those provided in Table 1. In some instances, mice may be made to inhale doses. Dose sizes may range from 0.001 mg/kg to 10 mg/kg, where 10 mg/kg describes a dose including 10 mg of a therapeutic and/or prophylactic agent in a nanoparticle composition for each 1 kg of body mass of the mouse. A control composition including PBS may also be employed.
Upon administration of nanoparticle compositions to mice, dose delivery profiles, dose responses, and toxicity of particular formulations and doses thereof can be measured by enzyme-linked immunosorbent assays (ELISA), bioluminescent imaging, or other methods. For nanoparticle compositions including mRNA, time courses of protein expression can also be evaluated. Samples collected from the rodents for evaluation may include blood, sera, and tissue (for example, muscle tissue from the site of an intramuscular injection and internal tissue); sample collection may involve sacrifice of the animals.
The efficacy of the nanoparticle compositions presented in Tables 1, la, 17-1, 19-1, 20-1 and 21-1 was evaluated with a bioluminescence study. Formulations were administered intravenously to mice (n=6) at a dosage of 0.5 mg/kg (mpk) and bioluminescence measured at 3, 6, and 24 hour time points. The standard MC3 formulation and a PBS control were evaluated for comparison.

hEPO mRNA expression = experiment: Expression of hEPO in mice (CD-1); format: in vivo, CD-1 mice; conditions: mice; in words
Excerpt: FIG. 12 is a set of graphs illustrating hEPO expression levels in CD-1 mice dosed with compounds of the disclosure, compared to MC3. PBS is used as control. […] In graphs A-C numbers 1-14 refer to compositions containing the following: 1: Compound 73, 2: Compound 80, 3: Compound 70; 4: Compound 81; 5: Compound 69; 6: Compound 82; 7: Compound 83; 8: Compound 62; 9: Compound 84; 10: Compound 85; 11: Compound 86; 12: Compound 87; 13: MC3; 14: PBS.
FIG. 13 is a graph showing hEPO levels (pg/mL) in CD-1 mice up to −25 h after administration of a nanoparticle composition containing compounds of the disclosure, compared to a composition containing MC3. Numbers 1-13 refer to compositions containing the following: 1: Compound 73, 2: Compound 80, 3: Compound 70; 4: Compound 81; 5: Compound 69; 6: Compound 82; 7: Compound 83; 8: Compound 62; 9: Compound 84; 10: Compound 85; 11: Compound 86; 12: Compound 87; 13: MC3. […]

Row | SMILES | Liver/Spleen Ratio [1] | Lipid/MC3 AUC [1] | % Dose Remaining 24 hr [2] | PDI [3] | Lipid/MC3 AUC CD-1 mice 0.5 mpk [1] | Lipid/KL22 AUC LDLr−/− mice 0.5 mpk, LDLr [4] | other results
1 | CCCCCCCCCN(CCCCCCCCC)CCN(CCCCCCCCC)CC(=O)N1CCN(C(=O)CN(CCCCCCCCC)CCCOC(=O)CCCCC)CC1 [Compound 56, 3-((2-(4-(N-(2-(Dinonylamino)ethyl)-N-nonylglycyl)piperazin-1-yl)-2-oxoethyl)(nonyl)amino)propyl Hexanoate] | 29 | 1.25 | 0.16% | – | – | – | –
2 | CCCCCCCCCCCCN(CCCCCCCCCCCC)CCN(CCCCCCCCC)CC(=O)N1CCN(C(=O)CN(CCCCCCCCC)CCCCCCCCC)CC1 [Compound 6, 2-((2-(Didodecylamino)ethyl)(nonyl)amino)-1-(4-(dinonylglycyl)piperazin-1-yl)ethan-1-one] | – | – | – | 0.160 | 1.72 | 0.37 | –
3 | CCCCCCCCCCCCN(CCCCCCCCCCCC)CC(=O)N1CCN(C(=O)CN(CCCCCCCCCCCC)CCN(CCCCCCCCC)CCCCCCCCC)CC1 [Compound 9, 2-(Didodecylamino)-1-(4-(N-(2-(dinonylamino)ethyl)-N-dodecylglycyl)piperazin-1-yl)ethan-1-one] | – | – | – | 0.170 | 0.73 | 0.58 | Size (nm) ([3]; lipid:DOPE:Chol:PEG-DMG 40:20:38.5:1.5, Luc mRNA, MC3 standard formulation): 78.0 nm
4 | CCCCCCCCCN(CCCCCCCCC)CCN(CCCCCCCCC)CC(=O)N1CCN(C(=O)CN(CCCCCCCCC)CCCCCCC(=O)OCC)CC1 [Compound 53, Ethyl 7-((2-(4-(N-(2-(dinonylamino)ethyl)-N-nonylglycyl)piperazin-1-yl)-2-oxoethyl)(nonyl)amino)heptanoate] | 17 | 0.07 | 0.77% | – | – | – | –
5 | CCCCCCCCCCCCN(CCCCCCCCCCCC)CCN(CCCCCCCCC)CC(=O)N1CCN(C(=O)CN(CCCCCCCCCCCC)CCCCCCCCCCCC)CC1 [Compound 10, 2-(Didodecylamino)-1-(4-(N-(2-(didodecylamino)ethyl)-N-nonylglycyl)piperazin-1-yl)ethan-1-one] | – | – | – | 0.130 | 1.14 | 0.71 | –
6 | CCCCCCCCCN(CCCCCCCCC)CCN(CCCCCCCCC)CC(=O)N1CCN(C(=O)CN(CCCC(=O)OCCCCC)CCCC(=O)OCCCCC)CC1 [Compound 72, Dipentyl 4,4′-((2-(4-(N-(2-(dinonylamino)ethyl)-N-nonylglycyl)piperazin-1-yl)-2-oxoethyl)azanediyl)dibutyrate] | 6 | 0.46 | 6.40% | – | – | – | –
7 | CCCCCCCCCCCCN(CCCCCCCCCCCC)CC(=O)N1CCN(C(=O)CN(CCCCCCCCC)CCN(CCCCCCCCC)CCCCCCCCC)CC1 [Compound 8, 2-(Didodecylamino)-1-(4-(N-(2-(dinonylamino)ethyl)-N-nonylglycyl)piperazin-1-yl)ethan-1-one] | – | – | – | 0.110 | 2.33 | 3.74 | –
8 | CCCCCCCCCN(CCCCCCC(=O)OCC)CCC1CCN(C(=O)CN(CCCCCCCCC)CCN(CCCCCCCCC)CCCCCCCCC)CC1 [Compound 58, Ethyl 7-((2-(1-(N-(2-(dinonylamino)ethyl)-N-nonylglycyl)piperidin-4-yl)ethyl)(nonyl)amino)heptanoate] | 11 | 0.97 | 0.61% | – | – | – | –
9 | CCCCCCCCCN(CCCOC(=O)CCCCC)CCC1CCN(C(=O)CN(CCCCCCCCC)CCN(CCCCCCCCC)CCCCCCCCC)CC1 [Compound 61, 3-((2-(1-(N-(2-(Dinonylamino)ethyl)-N-nonylglycyl)piperidin-4-yl)ethyl)(nonyl)amino)propyl Hexanoate] | 30 | 3.27 | 0.13% | – | – | – | –
10 | CCCCCCCCCCCCN(CCCCCCCCCCCC)CCN(CCCCCCCCCCCC)CCN1CCN(CCN(CCCCCCCCCCCC)CCCCCC(=O)OCCCCC)CC1 [Compound 12, Pentyl 6-((2-(4-(2-((2-(didodecylamino)ethyl)(dodecyl)amino)ethyl)piperazin-1-yl)ethyl)(dodecyl)amino)hexanoate] | – | – | – | 0.096 | – | – | Luc expression in mice compared with MC3 (Table 7a) [5]: significantly lower; hEPO expression in mice compared with MC3 (Table 7a) (hEPO mRNA expression): substantially higher; Lipid/MC3 Luc CD-1 (mice) ([1]; Luc expression relative to MC3, CD-1 mice): 0.21
11 | CCCCCCCCCN(CCCCCCCCC)CCN(CCCCCCCCC)CC(=O)N1CCN(C(=O)CN(CCCCCCCCC)CCCCC(=O)OCCCC)CC1 [Compound 55, Butyl 5-((2-(4-(N-(2-(dinonylamino)ethyl)-N-nonylglycyl)piperazin-1-yl)-2-oxoethyl)(nonyl)amino)pentanoate] | 9 | 0.14 | 1.60% | – | – | – | –
12 | CCCCCCCCCCCCN(CCN(CCCCCCCCC)CCCCCCCCC)CC(=O)N1CCN(C(=O)CN(CCCCCCCCC)CCCCCCCCC)CC1 [Compound 5, 2-(Dinonylamino)-1-(4-(N-(2-(dinonylamino)ethyl)-N-dodecylglycyl)piperazin-1-yl)ethan-1-one] | – | – | – | 0.140 | 2.62 | 1.86 | –
13 | CCCCCCCCCN(CCCCCCCC(=O)OC)CCC1CCN(C(=O)CN(CCCCCCCCC)CCN(CCCCCCCCC)CCCCCCCCC)CC1 [Compound 57, Methyl 8-((2-(1-(N-(2-(dinonylamino)ethyl)-N-nonylglycyl)piperidin-4-yl)ethyl)(nonyl)amino)octanoate] | 15 | 0.85 | 0.24% | – | – | – | % Dose Remaining 6 hr ([2]; 6 hr): 0.88%
14 | CCCCCCCCCCCCN(CCCCCCCCCCCC)CCN(CCCCCCCCCCCC)CC(=O)N1CCN(C(=O)CN(CCCCCCCCC)CCCCCCCCC)CC1 [Compound 7, 2-((2-(Didodecylamino)ethyl)(dodecyl)amino)-1-(4-(dinonylglycyl)piperazin-1-yl)ethan-1-one] | – | – | – | 0.130 | 1.51 | 2.46 | –
